Experimental data published in patent US20030165864A1, “Genes regulated by DNA methylation in tumor cells” (priority 2001, published 2003).

Experiments:
[1] = system: HT29 colorectal carcinoma cells; assay: microarray differential expression in 5-aza-2-deoxycytidine-treated versus untreated HT29 cells; type: cell-based, human; conditions: for D.E. (log2): 500 nM, treated vs untreated HT29 cells
From the text: Incyte clones represent template sequences derived from the LIFESEQ GOLD assembled human sequence database (Incyte Genomics). In cases where more than one clone was available for a particular template, the 5′-most clone in the template was used on the microarray. The HUMAN GENOME GEM series 1-4 microarrays (Incyte Genomics) contain 37,715 array elements which represent 12,989 annotated clusters and 24,726 unannotated clusters.
To construct microarrays, cDNAs were amplified from bacterial cells using primers complementary to vector sequences flanking the cDNA insert. Thirty cycles of PCR increased the initial quantity of cDNAs from 1-2 ng to a final quantity greater than 5 μg. Amplified cDNAs were then purified using SEPHACRYL-400 columns (APB). Purified cDNAs were immobilized on polymer-coated glass slides. Glass microscope slides (Corning, Corning N.Y.) were cleaned by ultrasound in 0.1% SDS and acetone, with extensive distilled water washes between and after treatments. Glass slides were etched in 4% hydrofluoric acid (VWR Scientific Products, West Chester Pa.), washed thoroughly in distilled water, and coated with 0.05% aminopropyl silane (Sigma Aldrich) in 95% ethanol. Coated slides were cured in a 110° C. oven. cDNAs were applied to the coated glass substrate using a procedure described in U.S. Pat. No. 5,807,522. One microliter of the cDNA at an average concentration of 100 ng/μl was loaded into the open capillary printing element by a high-speed robotic apparatus which then deposited about 5 nl of cDNA per slide.
Microarrays were UV-crosslinked using a STRATALINKER UV-crosslinker (Stratagene), and then washed at room temperature once in 0.2% SDS and three times in distilled water. Non-specific binding sites were blocked by incubation of microarrays in 0.2% casein in phosphate buffered saline (Tropix, Bedford Mass.) for 30 minutes at 60° C. followed by washes in 0.2% SDS and distilled water as before.
HT29 cells were derived from a Grade II adenocarcinoma of the colon obtained from a person. HT29 adenocarcinoma cells (American Type Culture Collection, Manassas Va.) were cultured in McCoy's medium supplemented with 10% fetal bovine serum (Invitrogen) at 37° C. and 5% CO2. Treated cells were exposed to 500 nM 5-aza-2-deoxycytidine (Sigma-Aldrich) 24 hr after passage in complete culture medium. Control cultures were treated in parallel with phosphate buffered saline vehicle. After twenty-four hours, culture medium was replaced with drug-free medium. Control and 5-aza-2-deoxycytidine-treated cells were subcultured at equal densities at 1 and 5 days after the initial treatment, and proliferation was measured at the subsequent time point using a Coulter counter (Beckman Coulter, Fullerton Calif.). Cells were harvested 9 days after the initial treatment.
Cells were harvested and lysed in 1 ml of TRIZOL reagent (5×10^6 cells/ml; Invitrogen). The lysates were vortexed thoroughly and incubated at room temperature for 2-3 minutes and extracted with 0.5 ml chloroform. The extract was mixed, incubated at room temperature for 5 minutes, and centrifuged at 16,000×g for 15 minutes at 4° C. The aqueous layer was collected and an equal volume of isopropanol was added. Samples were mixed, incubated at room temperature for 10 minutes, and centrifuged at 16,000×g for 20 minutes at 4° C. The supernatant was removed and the RNA pellet was washed with 1 ml of 70% ethanol, centrifuged at 16,000×g at 4° C., and resuspended in RNAse-free water. The concentration of the RNA was determined by measuring the optical density at 260 nm.
Poly(A) RNA was prepared using an OLIGOTEX mRNA kit (Qiagen) with the following modifications: OLIGOTEX beads were washed in tubes instead of on spin columns, resuspended in elution buffer, and then loaded onto spin columns to recover mRNA. To obtain maximum yield, the mRNA was eluted twice. […]

HT-29 cells [2] = conditions: cultured HT-29 cells, colorectal cancer cell line; cited from earlier work
HT-29 cells [3] = conditions: inhibition parallels induction of IFN responsive genes; cited from earlier work
polyp formation = conditions: in combination with a genetic reduction in DNA methyltransferase I activity; cited from earlier work
[4] = treated HT29 cells versus untreated cells

In the case of `Nc1ncn([C@H]2C[C@H](O)[C@@H](CO)O2)c(=O)n1` [5-aza-2-deoxycytidine], the “D.E. (log2)” value ([1]; SEQ ID NO 1, GAGE-8 [Homo sapiens], harvested 9 days after treatment) is reported as 3.45 log2, the “D.E. (log2)” value ([1]; SEQ ID NO 2, GAGE-7B [Homo sapiens]) is reported as 2.51 log2 and the “D.E. (log2)” value ([1]; SEQ ID NO 3, p27 [Homo sapiens]) is reported as 2.08 log2. The “D.E. (log2)” value ([1]; SEQ ID NO 4, MAGE-6 antigen [Homo sapiens]) was 1.74 log2, the “D.E. (log2)” value ([1]; SEQ ID NO 5, interferon-inducible protein [Homo sapiens]) was 1.62 log2 and the “D.E. (log2)” value ([1]; SEQ ID NO 6, MAGE-9 antigen [Homo sapiens]) was 1.57 log2. For the same molecule, the “D.E. (log2)” value ([1]; SEQ ID NO 7, interferon-inducible peptide precursor [Homo sapiens]) was 1.56 log2, the “D.E. (log2)” value ([1]; SEQ ID NO 8, transcription factor ISGF-3 [Homo sapiens]) was 1.49 log2 and the “D.E. (log2)” value ([1]; SEQ ID NO 9, HLA Class I region, chromosome 6p21.3, section 6/20 [Homo sapiens]) was 1.40 log2. The “D.E. (log2)” value ([1]; SEQ ID NO 10, hypothetical protein [Homo sapiens]) was 1.33 log2, the “D.E. (log2)” value ([1]; SEQ ID NO 11, GAGE-8 protein [Homo sapiens]) was 2.67 log2 and the “D.E. (log2)” value ([1]; SEQ ID NO 12, putative tumor antigen [Homo sapiens]) was 2.57 log2. The “D.E. (log2)” value ([1]; SEQ ID NO 13, semaphorin B [Mus musculus]) was 1.92 log2, the “D.E. (log2)” value ([1]; SEQ ID NO 14, Incyte Unique, Template 213413.1) was 2.10 log2 and the “D.E. (log2)” value ([1]; SEQ ID NO 15, Incyte Unique, Template 032481.1) was 1.76 log2. For the same molecule, the “D.E. (log2)” value ([1]; SEQ ID NO 16, HLA Class I region, chromosome 6p21.3 [Homo sapiens]) was 1.67 log2, the “D.E. (log2)” value ([1]; SEQ ID NO 17, proline rich synapse associated protein 1 [Rattus norvegicus]) was 1.66 log2 and the “D.E. (log2)” value ([1]; SEQ ID NO 18, hepatitis C-associated microtubular aggregate protein p44 [Homo sapiens]) was 1.53 log2. The “D.E. (log2)” value ([1]; SEQ ID NO 19, S100P calcium-binding protein [Homo sapiens], negative = downregulation) was −1.34 log2, the “D.E. (log2)” value ([1]; SEQ ID NO 20, G0S2 protein [Homo sapiens], negative = downregulation) was −1.41 log2 and the “D.E. (log2)” value ([1]; SEQ ID NO 21, progesterone-induced protein [Oryctolagus cuniculus], negative = downregulation) was −1.42 log2. The “D.E. (log2)” value ([1]; SEQ ID NO 22, phosphoenolpyruvate carboxykinase [Homo sapiens], negative = downregulation) was −1.72 log2, the “D.E. (log2)” value ([1]; SEQ ID NO 23, unnamed protein product [Homo sapiens], negative = downregulation) was −1.74 log2 and the “D.E. (log2)” value ([1]; SEQ ID NO 24, cystine/glutamate transporter [Homo sapiens], negative = downregulation) was −1.81 log2. The “D.E. (log2)” value ([1]; SEQ ID NO 25, Incyte Unique, Template 200578.1, negative = downregulation) was −1.63 log2, the “differential expression values of each cDNA (SEQ ID NOs: 1-25)” value ([1]; treated HT29 cells relative to untreated HT29 cells, up- or downregulation) was “greater than 2.5 fold” and the “upregulation of SEQ ID NO: 1” value [1, 4] was > 5 fold. For the same molecule, the “upregulation of SEQ ID NO: 2” value [1, 4] was > 5 fold, the “upregulation of SEQ ID NO: 4” value [1, 4] was > 3 fold and the “upregulation of SEQ ID NO: 6” value [1, 4] was > 3 fold. The “upregulation of SEQ ID NO: 11” value [1, 4] was > 5 fold, the “upregulation of SEQ ID NO: 12” value [1, 4] was > 5 fold and the “gene expression after treatment” value (HT-29 cells [2]) was “specific expression of several genes related to interferon (IFN) signaling”. For the same molecule, the “growth of HT-29 cells in culture” value (HT-29 cells [3]) was “inhibits growth” and the polyp formation (polyp formation) was “reduced polyp formation”.
